Key:
[1] = ref Alexander et al., 2009, cited from earlier work; for provisional toxicity equivalent factor (TEF): EFSA
[2] = In vitro hepatocyte assay under kinetic conditions (PTX-2 disappearance); format: in vitro ADME, Wistar rats; conditions: male, Wistar, primary rat hepatocytes in suspension, pH 7.4, primary rat hepatocytes, read-out: t½,assay (converted)
Method: (§1) Isolated rat liver cells were prepared by a two-step collagenase ex vivo perfusion from male Wistar rats, weighing 250–300 g and kept under routine laboratory conditions with free access to standard laboratory pelleted feed and water ([Seglen, 1976]). The hepatocytes were separated by gradient centrifugation ([Fæste and Moldes-Anaya, 2016]), suspended in PBS, and stored for up to 1 h on ice before use ([Sidelmann et al., 1996], [Gebhardt et al., 2003]). Cell viability was determined microscopically (Leica DMIL microscope; Leica Microsystems GmBH, Wetzlar, Germany), using Trypan blue staining and a Neubauer-counting chamber. About 2.5 × 10^8 living cells per liver were obtained on average, and only preparations with viabilities >92% were used in the metabolism experiments.
(§2) The hepatocyte suspension was diluted with KRB–HEPES buffer pH 7.4 (Krebs-Ringer buffer containing 145 mM NaCl, 5.4 mM KCl, 0.8 mM MgSO4, 0.33 mM Na2HPO4, 0.34 mM KH2PO4, 2 mM CaCl2, and 20 mM HEPES) to a final assay concentration of 2.5 × 10^6 cells/mL. The incubations were performed in capped round-bottom glass tubes in a total assay volume of 5 mL. After pre-incubation for 5 min at 37 °C in a shaking water bath, 5–25 μL of a PTX-2 stock solution containing 1 mg/mL PTX-2 in MeOH were added, resulting in initial concentrations of 1–5 μg/mL PTX-2 in the assay. Aliquots (300 μL) were taken after 0, 2.5, 5, 7.5, 10, 15, 30, and 60 min of incubation and directly transferred into 300 μL ice-cold acetonitrile (ACN) in Eppendorf tubes. Two control samples were included in the experiments, a blank matrix control and a PTX-2 stability control. After centrifuging all samples at 16,000 g for 1 min (5415D centrifuge; Eppendorf AG, Hamburg, Germany), the supernatants were transferred to HPLC vials for analysis by liquid chromatography mass spectrometry (LC-MS) to determine the half-life of PTX-2 in rat hepatocytes.
(§3) LC-MS analyses of centrifuged aliquots from the kinetic assays were performed under reversed phase conditions using a Symmetry C18 column (5 μm, 3.9 × 150 mm) (Waters, Milford, MA, USA) and a binary LC pump (Finnigan Mod. 250) coupled to an Autosampler Plus (Thermo Electron Corporation, San Jose, CA, USA). 5–20 μL samples were injected and eluted using a linear gradient starting with ACN/water (40:60, v/v, both containing 0.1% formic acid and 2 mM ammonium formate) and rising to 100% ACN in 20 min. Isocratic elution with 100% ACN was maintained for 5 min before the eluent was returned to the starting conditions. The flow rate was set to 1 mL/min.

primary rat hepatocytes [3] = assay: as above; format: in vitro ADME, Wistar rats
Method: as §1, §2, §3

primary rat hepatocytes [4] = assay: Calculation of the hepatic clearance and maximum bioavailability of PTX-2 in rats from hepatocyte half-life; format: in vitro ADME; conditions: for CLb: predicted in vivo hepatic blood clearance in rat, well-stirred model, fub = 1; for CLint: scaled from rat hepatocyte assay
Method: The in vitro assay clearance (CLassay) of PTX-2 was calculated from the hepatocyte incubations run with first order kinetics (CLassay = Vassay × ln2/t1/2 [Lh^−1]) using the assay volume (Vassay) and the disappearance half-life (t1/2) of the parent compound as determined from the slope of the linear regression from a semi-logarithmic concentration vs. time plot ([Obach, 1999]). […] The in vivo hepatic blood clearance (CLb) was calculated from CLint by applying the non-restricted well-stirred model (CLb = CLint x Q/(CLint + Q) [L (h x kg)^−1]) ([Houston, 1994]), considering the hepatic blood flow in rat (Q ~ 4.2 L (h x kg)^−1) ([Lin and Lu, 1998]). Potential binding to blood components in vivo was not considered in this study and thus the fraction unbound in blood (fub) set to 1. The maximum bioavailability (Fmax) of PTX-2 in rats was estimated (Fmax = Fa x (1 – (CLb/Q) under the assumption of complete absorption from the gastrointestinal tract (Fa = 1) ([De Buck et al., 2007]) and negligible non-hepatic elimination. Fmax was ranked according to the criteria for low (0–10%), moderate (10–30%) and high bioavailability (up to 100%) ([Obach, 1996]).

mice [5] = conditions: intestinal toxicity in mice; ref Alexander et al., 2009; cited from earlier work
mice [6] = conditions: single oral doses of 0.3, 1 and 5 mg/kg bw, preliminary data, ref Burgess and Shaw, 2001, Alexander et al., 2009; cited from earlier work
mice [7] = conditions: mouse, ref Suzuki et al., 2006, cited from earlier work
mussels = conditions: in mussels, in contrast to PTX-2; ref MacKenzie et al., 2005; cited from earlier work

## CC1=C\[C@H](C)C[C@@]2(C)CC[C@@H](O2)[C@@]23CC[C@@](CO)(C[C@@H](O2)[C@H]2O[C@](C)(CC2=O)[C@@H](O)[C@@H]2CC[C@@]4(CCC[C@H](O4)[C@@H](C)C(=O)O[C@@H]4C[C@@H]([C@@]5(O)OCC[C@@H](C)[C@H]5O)O[C@@H]4\C=C\1)O2)O3 [PTX-1, reference compound]
[1]
  provisional toxicity equivalent factor (TEF): 1

## CC(/C=C/[C@H]1O[C@H]([C@@]2(O)OCC[C@@H](C)[C@H]2O)C[C@H]1O)=C\[C@H](C)C[C@@]1(C)CC[C@H]([C@@]23CC[C@@](C)(C[C@H]([C@H]4O[C@@](C)([C@@H](O)[C@@H]5CCC6(CCC[C@@H]([C@@H](C)C(=O)O)O6)O5)CC4=O)O2)O3)O1 (stereo partly drawn) [PTX-2 seco acid (SA), pectenotoxin-2 seco acid]
[1]; compared with PTXs given TEF of 1
  relative toxicity: much less toxic

## CC1=CC(C)CC2(C)CCC(O2)C23CCC(C)(CC(O2)C2OC(C)(CC2=O)C(O)C2CCC4(CCCC(O4)C(C)C(=O)OC4CC(C5(O)OCCC(C)C5O)OC4C=C1)O2)O3 (stereo not drawn) [PTX-2, pectenotoxin-2]
[2]; PTX-2 1.4 μg/mL
  half-life at 1.4 μg/mL: 11.4 min
[2]; PTX-2 2.6 μg/mL
  half-life at 2.6 μg/mL: 9.6 min
[2]; PTX-2 4.8 μg/mL
  half-life at 4.8 μg/mL: 12 min
Primary rat hepatocytes [3]; after 30 min of incubation, all concentrations, rat hepatocytes
  PTX-2 remaining unchanged: 17–20%
Primary rat hepatocytes [3]; freshly isolated rat hepatocytes
  metabolism in freshly isolated rat hepatocytes: rapidly metabolized
Primary rat hepatocytes [4]; PTX-2 1.4 μg/mL
  CLb: 47.3 mL/min/kg
  CLint: 146 mL/min/kg
Primary rat hepatocytes [4]; PTX-2 2.6 μg/mL
  CLb: 50 mL/min/kg
  CLint: 174 mL/min/kg
Primary rat hepatocytes [4]; PTX-2 4.8 μg/mL
  CLb: 47 mL/min/kg
  CLint: 143 mL/min/kg
Primary rat hepatocytes [4]; after oral uptake, rat
  compound predicted to remain unmetabolized after the first pass through the liver: up to 32%
Primary rat hepatocytes [4]; rat, negligible protein binding and unrestricted absorption assumed
  predicted hepatic blood clearance (rank): moderate
Mice [5]
  lowest-observed-adverse-effect-level (LOAEL): 250 μg/kg bw
[1]
  provisional toxicity equivalent factor (TEF): 1
[1]; established by EFSA
  acute reference dose (ARfD): 0.8 μg PTX-2 equivalents/kg body weight (bw)
Mice [6]
  metabolic elimination: considerable metabolic elimination
  uptake from the gastrointestinal tract: low uptake from the gastrointestinal tract

## CC1=C\[C@H](C)C[C@@]2(C)CC[C@@H](O2)[C@@]23CC[C@@](C=O)(C[C@@H](O2)[C@H]2O[C@](C)(CC2=O)[C@@H](O)[C@@H]2CC[C@@]4(CCC[C@H](O4)[C@@H](C)C(=O)O[C@@H]4C[C@@H]([C@@]5(O)OCC[C@@H](C)[C@H]5O)O[C@@H]4\C=C\1)O2)O3 [PTX-3]
[1]
  provisional toxicity equivalent factor (TEF): 1

## CC1=C\[C@H](C)C[C@@]2(C)CC[C@@H](O2)[C@@]23CC[C@@](CO)(C[C@@H](O2)[C@H]2O[C@](C)(CC2=O)[C@@H](O)[C@@H]2CC[C@]4(CCC[C@H](O4)[C@@H](C)C(=O)O[C@@H]4C[C@@H]([C@@]5(O)OCC[C@@H](C)[C@H]5O)O[C@@H]4\C=C\1)O2)O3 [PTX-4]
[1]
  provisional toxicity equivalent factor (TEF): 1

## CC1=C\[C@H](C)C[C@@]2(C)CC[C@@H](O2)[C@@]23CC[C@@](C(=O)O)(C[C@@H](O2)[C@H]2O[C@](C)(CC2=O)[C@@H](O)[C@@H]2CC[C@@]4(CCC[C@H](O4)[C@@H](C)C(=O)O[C@@H]4C[C@@H]([C@@]5(O)OCC[C@@H](C)[C@H]5O)O[C@@H]4\C=C\1)O2)O3 [PTX-6]
[1]
  provisional toxicity equivalent factor (TEF): 1

## CC1=C\[C@H](C)C[C@@]2(C)CC[C@@H](O2)[C@@]23CC[C@@](C)(C[C@@H](O2)[C@H]2O[C@](C)(CC2=O)[C@@H](O)[C@@H]2CC[C@@]4(CCC[C@H](O4)[C@@H](C)C(=O)O[C@@H]4[C@H](O)[C@@H]([C@@]5(O)OCC[C@@H](C)[C@H]5O)O[C@@H]4\C=C\1)O2)O3 [PTX-11, 34 S-hydroxypectenotoxin-2]
[1]
  provisional toxicity equivalent factor (TEF): 1
Mice [7]; as much as 5 mg/kg bw p. o.
  effects after oral application: no effects were detected
Mice [7]; i. p.
  LD50: 0.24 mg/kg bw
mussels
  resistance to enzymatic hydrolysis: relatively resistant to enzymatic hydrolysis

From publication PMC7285913, “In vitro hepatic biotransformation of the algal toxin pectenotoxin-2” (Toxicon: X, 2020)
